Like-named read-outs stand apart in the source and are kept apart here. Positions of bridges follow the written chain, without caps; N, C: chain ends. Residues, ends and D or L forms follow the SMILES beside them.
Legend:
WT RBD [1] = target: T1, WT RBD (Severe acute respiratory syndrome coronavirus 2, UniProt P0DTC2); assay: biochemical; assay type: binding, SARS-CoV-2
WT RBD [2] = target: T1, WT RBD; assay: biochemical; assay type: binding, SARS-CoV-2; remark: listed apart in the source
[3] = covalently immobilized onto CM5 via amine groups

Compound: CC[C@H](C)[C@@H]1NC(=O)[C@H](CCCCN)NC(=O)CNC(=O)[C@H](CCCNC(=N)N)NC(=O)[C@@H]2CSSC[C@H](N)C(=O)N3CCC[C@H]3C(=O)N[C@@H](Cc3c[nH]c4ccccc34)C(=O)N[C@@H](CC(N)=O)C(=O)N[C@@H](C)C(=O)N[C@@H](Cc3ccc(O)cc3)C(=O)N[C@@H](CCC(=O)O)C(=O)N[C@H]3CSSC[C@H](NC(=O)[C@H]([C@@H](C)O)NC(=O)[C@H](CCC(N)=O)NC(=O)[C@H](CCCNC(=N)N)NC1=O)C(=O)N[C@@H](Cc1c[nH]cn1)C(=O)N[C@H](C(=O)N[C@@H](Cc1ccc(O)cc1)C(=O)O)CSSC[C@H](NC(=O)[C@H](Cc1c[nH]cn1)NC(=O)[C@H](CCCNC(=N)N)NC(=O)[C@H](CC(=O)O)NC3=O)C(=O)N[C@@H](C(C)C)C(=O)N[C@@H](CO)C(=O)N[C@@H](CCCCN)C(=O)NCC(=O)N[C@@H](Cc1ccc(O)cc1)C(=O)N[C@@H]([C@@H](C)O)C(=O)NCC(=O)NCC(=O)N[C@@H](CC(N)=O)C(=O)N2 [(ΔGFG)AMSIN] (H-CPWNAYECDRHCVSKGYTGGNCRGKIRQTCHCY-OH; disulfide 1-22, 8-30, 12-32)
- Kd (WT RBD [1]): 119 nM

Compound: CC[C@H](C)[C@@H]1NC(=O)CNC(=O)[C@H](CCCCN)NC(=O)[C@@H]2CSSC[C@@H](C(=O)N[C@@H](Cc3ccc(O)cc3)C(=O)O)NC(=O)[C@H](CCCCN)NC(=O)[C@@H]3CSSC[C@H](NC(=O)[C@H](CCCNC(=N)N)NC(=O)[C@H](CO)NC(=O)[C@H](CC(=O)O)NC(=O)[C@H](CC(N)=O)NC(=O)CNC(=O)CNC(=O)[C@H](Cc4ccccc4)NC(=O)[C@H]([C@@H](C)CC)NC(=O)[C@H]([C@@H](C)O)NC(=O)[C@@H](NC(=O)CNC(=O)[C@H](Cc4c[nH]c5ccccc45)NC(=O)CN)CSSC[C@H](NC(=O)[C@H](Cc4ccc(O)cc4)NC(=O)CNC(=O)CNC(=O)[C@H](CCCNC(=N)N)NC(=O)[C@H](Cc4ccc(O)cc4)NC(=O)CNC(=O)[C@H](CCCNC(=N)N)NC1=O)C(=O)N[C@@H](CCCCN)C(=O)N[C@@H](CC(C)C)C(=O)NCC(=O)NCC(=O)N[C@@H]([C@@H](C)CC)C(=O)N3)C(=O)N[C@@H](Cc1c[nH]cn1)C(=O)N[C@@H](CCCNC(=N)N)C(=O)N[C@@H](Cc1c[nH]cn1)C(=O)N2 [Emorisin] (H-GWGCTIFGGNDSRCHRHCKGIRGYRGGYCKLGGICKCY-OH; disulfide 4-29, 14-35, 18-37)
- Kd (WT RBD [2]): 7.6 nM
- koff (WT RBD [2]): 0.045 s⁻¹
- kon (WT RBD [2]): 5.92e+06 M⁻¹ s⁻¹

Compound: CC[C@H](C)[C@@H]1NC(=O)[C@H](CCCCN)NC(=O)CNC(=O)[C@H](CCCNC(=N)N)NC(=O)[C@@H]2CSSC[C@H](NC(=O)CNC(=O)[C@H](Cc3ccccc3)NC(=O)CN)C(=O)N3CCC[C@H]3C(=O)N[C@@H](Cc3c[nH]c4ccccc34)C(=O)N[C@@H](CC(N)=O)C(=O)N[C@@H](C)C(=O)N[C@@H](Cc3ccc(O)cc3)C(=O)N[C@@H](CCC(=O)O)C(=O)N[C@H]3CSSC[C@H](NC(=O)[C@H]([C@@H](C)O)NC(=O)[C@H](CCC(N)=O)NC(=O)[C@H](CCCNC(=N)N)NC1=O)C(=O)N[C@@H](Cc1c[nH]cn1)C(=O)N[C@H](C(=O)N[C@@H](Cc1ccc(O)cc1)C(=O)O)CSSC[C@H](NC(=O)[C@H](Cc1c[nH]cn1)NC(=O)[C@H](CCCNC(=N)N)NC(=O)[C@H](CC(=O)O)NC3=O)C(=O)N[C@@H](C(C)C)C(=O)N[C@@H](CO)C(=O)N[C@@H](CCCCN)C(=O)NCC(=O)N[C@@H](Cc1ccc(O)cc1)C(=O)N[C@@H]([C@@H](C)O)C(=O)NCC(=O)NCC(=O)N[C@@H](CC(N)=O)C(=O)N2 [AMSIN] (H-GFGCPWNAYECDRHCVSKGYTGGNCRGKIRQTCHCY-OH; disulfide 4-25, 11-33, 15-35)
- Kd (WT RBD [2]): 193 nM
- koff (WT RBD [2]): 0.00219 s⁻¹
- kon (WT RBD [2]): 11300 M⁻¹ s⁻¹
- stability on CM5 chip [3]: rather stable

— PMC10315472 (Frontiers in Microbiology, 2023)
